From US8569267B2, “Tetracyclic tetrahydrofuran derivatives containing cyclic amine side chain” (Janssen Pharmaceutica, NV, priority 2005, dated 2013)

How the values were obtained:
[1] = biological target: T1, human cloned 5-HT2C receptor, expressed in CHO cells (Homo sapiens, UniProt P28335); assay: In vitro binding affinity for 5-HT2C receptor ([3H]mesulergine radioligand binding); details: human cloned 5-HT2C receptor; for IC50: read-out: 5-HT2C pIC50 (converted)
T1 construct: expressed in transfected cells; host or cells: CHO cells
T1 sequence (P28335 33-458): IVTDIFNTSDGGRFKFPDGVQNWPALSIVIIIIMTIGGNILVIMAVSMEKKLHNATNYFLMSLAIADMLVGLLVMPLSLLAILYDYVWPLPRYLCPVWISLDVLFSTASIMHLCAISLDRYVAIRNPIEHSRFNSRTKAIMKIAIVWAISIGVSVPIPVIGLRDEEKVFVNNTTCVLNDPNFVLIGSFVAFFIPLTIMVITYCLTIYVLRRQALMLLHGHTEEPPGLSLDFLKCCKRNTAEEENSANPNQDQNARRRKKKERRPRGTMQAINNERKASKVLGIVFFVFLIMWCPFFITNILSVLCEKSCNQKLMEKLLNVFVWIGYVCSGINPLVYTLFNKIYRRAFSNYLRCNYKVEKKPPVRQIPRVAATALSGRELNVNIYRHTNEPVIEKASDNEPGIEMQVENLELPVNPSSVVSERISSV
In short: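 Competition radioligand binding: varying test-compound concentrations incubated with receptor preparation and radioligand to binding equilibrium. Bound radioactivity separated from free and counted; affinity inferred from concentration-dependent inhibition of radioligand binding.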

[2] = biological target: T2, human cloned 5-HT2A receptor, expressed in L929 cells (Homo sapiens, UniProt P28223); assay: In vitro binding affinity for 5-HT2A receptor ([125I]R91150 radioligand binding); details: human cloned 5-HT2A receptor in L929 cells, [125I]R91150; for IC50: read-out: 5-HT2A pIC50 (converted)
T2 construct: expressed in transfected cells; host or cells: L929 cells
T2 sequence (P28223 whole entry): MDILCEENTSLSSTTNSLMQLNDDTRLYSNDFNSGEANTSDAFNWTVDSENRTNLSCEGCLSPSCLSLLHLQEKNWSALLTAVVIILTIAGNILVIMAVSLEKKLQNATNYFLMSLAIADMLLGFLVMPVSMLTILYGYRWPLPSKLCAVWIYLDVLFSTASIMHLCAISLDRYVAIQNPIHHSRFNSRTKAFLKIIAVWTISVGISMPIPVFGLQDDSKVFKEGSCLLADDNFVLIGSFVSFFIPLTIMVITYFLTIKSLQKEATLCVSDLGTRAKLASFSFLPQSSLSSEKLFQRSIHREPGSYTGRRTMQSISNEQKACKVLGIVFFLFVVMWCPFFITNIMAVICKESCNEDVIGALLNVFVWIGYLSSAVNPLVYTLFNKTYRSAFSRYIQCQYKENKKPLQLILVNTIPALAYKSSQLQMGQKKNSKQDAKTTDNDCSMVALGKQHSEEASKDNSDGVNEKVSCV
Experimental: In Vitro Binding Affinity for 5-HT2A and 5-HT2C Receptors
The interaction of the compounds of Formula (I) with 5-HT2A and 5-HT2C receptors was assessed in in vitro radioligand binding experiments. […] During the incubation, the radioligands bind to the receptor. When equilibrium of binding is reached, the receptor bound radioactivity is separated from the non-bound radioactivity, and the receptor bound activity is counted. The interaction of the test compounds with the receptors is assessed in competition binding experiments. Various concentrations of the test compound are added to the incubation mixture containing the tissue preparation and the radioligand. Binding of the radioligand will be inhibited by the test compound in proportion to its binding affinity and its concentration. The affinities of the compounds for the 5-HT2 receptors were measured by means of radioligand binding studies conducted with: (a) human cloned 5-HT2A receptor, expressed in L929 cells using [^125I]R91150 as radioligand and (b) human cloned 5-HT2C receptor, expressed in CHO cells using [^3H]mesulergine as radioligand.

[3] = biological target: T3, NET (norepinephrine transporter) (Rattus norvegicus, UniProt Q63380); assay: In vitro determination of NET reuptake inhibition ([3H]Nixosetine binding, rat brain cortex); details: rat brain cortex; for IC50: read-out: NET pIC50 (converted)
T3 construct: Cortex from rat brain was collected and homogenised; from tissue; host or cells: rat brain cortex
T3 sequence (Q63380 1-617): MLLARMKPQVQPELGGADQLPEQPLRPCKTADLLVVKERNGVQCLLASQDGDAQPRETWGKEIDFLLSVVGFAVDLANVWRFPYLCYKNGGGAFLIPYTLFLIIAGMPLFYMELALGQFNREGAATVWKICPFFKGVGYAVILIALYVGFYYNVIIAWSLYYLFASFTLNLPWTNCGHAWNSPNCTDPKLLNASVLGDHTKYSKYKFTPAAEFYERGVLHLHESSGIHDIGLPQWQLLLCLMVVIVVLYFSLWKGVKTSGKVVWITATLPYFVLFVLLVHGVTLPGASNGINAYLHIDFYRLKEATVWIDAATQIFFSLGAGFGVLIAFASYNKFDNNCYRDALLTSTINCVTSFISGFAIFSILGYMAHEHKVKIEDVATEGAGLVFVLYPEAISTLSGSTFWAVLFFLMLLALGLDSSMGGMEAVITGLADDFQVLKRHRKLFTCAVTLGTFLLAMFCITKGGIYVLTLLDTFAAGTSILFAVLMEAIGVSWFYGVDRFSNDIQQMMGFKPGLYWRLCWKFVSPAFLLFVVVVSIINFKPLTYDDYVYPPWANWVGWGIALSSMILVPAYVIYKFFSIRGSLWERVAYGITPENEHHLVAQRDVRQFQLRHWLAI
In short: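 Rat cortex homogenised in Tris 50 mM, NaCl 120 mM, KCl 5 mM, pH 7.4 was used for competition binding against [3H]nisoxetine. Bound radioligand was collected by filtration on GF/B filters and counted by scintillation. Percentage specific binding and competition curves were derived.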

[4] = biological target: T4, human Dopamine D2L receptor (Homo sapiens, UniProt P14416); assay: In vitro binding affinity for human D2L receptor ([3H]Spiperone binding); details: human D2L receptor-transfected CHO cell membranes; for IC50: read-out: D2L pIC50 (converted)
T4 construct: expressed in transfected cells; host or cells: CHO cells
T4 sequence (P14416 whole entry): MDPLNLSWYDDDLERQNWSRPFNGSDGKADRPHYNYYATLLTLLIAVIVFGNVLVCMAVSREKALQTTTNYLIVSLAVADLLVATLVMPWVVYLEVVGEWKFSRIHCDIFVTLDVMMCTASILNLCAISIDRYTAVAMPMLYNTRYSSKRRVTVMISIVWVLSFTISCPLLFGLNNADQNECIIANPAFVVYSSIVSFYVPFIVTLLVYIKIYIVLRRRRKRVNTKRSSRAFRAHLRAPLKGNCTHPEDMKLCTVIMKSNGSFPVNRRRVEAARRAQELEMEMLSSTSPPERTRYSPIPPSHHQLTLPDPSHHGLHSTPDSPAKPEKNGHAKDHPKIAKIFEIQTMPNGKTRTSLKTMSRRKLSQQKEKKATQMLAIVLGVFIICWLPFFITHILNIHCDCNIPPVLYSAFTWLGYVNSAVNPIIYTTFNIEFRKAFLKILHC
In short: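 Membranes from CHO cells transfected with the receptor were incubated with [3H]Spiperone (diluted to 2 nmol/L before addition) and compound for 30 min at 37° C. Buffer was Tris-HCl, pH 7.7, with NaCl, CaCl2, MgCl2 and KCl, and non-specific binding was defined with 10^−6 mol/l Butaclamol. Bound radioactivity was collected by filtration, counted by scintillation, and competition curves calculated as percent specific binding.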

Fc1ccc2c(c1)C1OC(CN3CCC(Oc4ccccc4F)C3)CC1c1ccccc1C2 (mixture of isomers) [Compound 34]
IC50 [1]: 0.427 nM
IC50 [2]: 7.24 nM
IC50 [3]: 6.17 µM
IC50 [4]: 10 nM

Fc1ccc2c(c1)C1OC(CN3CCN(Cc4cccc5ccccc45)CC3)CC1c1ccccc1C2 (stereo not shown) [Compound 75]
IC50 [1]: 97.7 nM
IC50 [2]: 17.4 nM
IC50 [3]: 1.62 µM
IC50 [4]: 63.1 nM

OC1CCN(C[C@H]2C[C@@H]3c4ccccc4Cc4ccc(F)cc4[C@@H]3O2)C1 (stereo partly drawn) [Compound 1, [2R-(2α, 3aα, 12bβ)]-(3′RS) 1-(11-fluoro-3,3a,8,12b-tetrahydro-2H-1-oxa-dibenzo[e,h]azulen-2-ylmethyl)-pyrrolidin-3-ol.oxalate (1:1)]
IC50 [1]: 0.372 nM
IC50 [2]: 0.692 nM
IC50 [3]: 0.479 µM
IC50 [4]: 7.41 nM

COCC(=O)N1CCN(CC2CC3c4ccccc4Cc4ccc(F)cc4C3O2)CC1 (stereo not shown) [Compound 77]
IC50 [1]: 13.2 nM
IC50 [2]: 3.09 nM
IC50 [3]: 3.63 µM
IC50 [4]: 33.9 nM

NCCN1CCN(CC2CC3c4ccccc4Cc4ccc(F)cc4C3O2)CC1 (stereo not shown) [Compound 47]
IC50 [1]: 34.7 nM
IC50 [2]: 6.46 nM
IC50 [3]: > 10 µM
IC50 [4]: 10 nM

CC(=Cc1ccccc1)CN1CCN(CC2CC3c4ccccc4Cc4ccc(F)cc4C3O2)CC1 (stereo not shown) [Compound 49]
IC50 [1]: 120 nM
IC50 [2]: 33.9 nM
IC50 [3]: 2.57 µM
IC50 [4]: 33.1 nM

Fc1ccc2c(c1)[C@@H]1O[C@@H](CN3CCCNCC3)C[C@@H]1c1ccccc1C2.O=C(O)C(=O)O.O=C(O)C(=O)O [Compound 267]
5-HT2C pIC50 [1]: 7.65
5-HT2A pIC50 [2]: 7.84
NET pIC50 [3]: 5.10
D2L pIC50 [4]: 6.81

O=C(OC1CCN(CC2CC3c4ccccc4Cc4ccc(F)cc4C3O2)C1)C1CC1 (mixture of isomers) [Compound 13]
IC50 [1]: 1.12 nM
IC50 [2]: 0.912 nM
IC50 [3]: 5.01 µM
IC50 [4]: 3.47 nM

N#CCCC1CCCN(CC2CC3c4ccccc4Cc4ccc(F)cc4C3O2)C1 (mixture of isomers) [Compound 169]
IC50 [1]: 2.88 nM
IC50 [2]: 3.16 nM
IC50 [3]: 1.62 µM
IC50 [4]: 13.8 nM

O=C(O)C(=O)O.OC1CCN(CC2CC3c4ccccc4Oc4ccc(Br)cc4C3O2)CC1 (stereo not shown) [Compound 286]
5-HT2C pIC50 [1]: 7.81
5-HT2A pIC50 [2]: 8.33
NET pIC50 [3]: <5
D2L pIC50 [4]: 7.50

COc1cc2c(cc1OC)CN(C[C@H]1C[C@@H]3c4ccccc4Cc4ccc(F)cc4[C@@H]3O1)CC2 [Compound 276]
IC50 [1]: 1.15 nM
IC50 [2]: 1.02 nM
IC50 [3]: > 10 µM
IC50 [4]: 17 nM

N#CCCNC(=O)C1CCN(CC2CC3c4ccccc4Cc4ccc(F)cc4C3O2)CC1 (stereo not shown) [Compound 174]
IC50 [1]: 2.19 nM
IC50 [2]: 1.62 nM
IC50 [3]: > 10 µM
IC50 [4]: 15.1 nM

Fc1ccc2c(c1)C1OC(CN3CCN(Cc4ccsc4)CC3)CC1c1ccccc1C2 (stereo not shown) [Compound 59]
IC50 [1]: 49 nM
IC50 [2]: 14.8 nM
IC50 [3]: 1.26 µM
IC50 [4]: 6.92 nM

O=C(Nc1ccccc1)OCC1CCN(CC2CC3c4ccccc4Cc4ccc(F)cc4C3O2)C1 (mixture of isomers) [Compound 22]
IC50 [1]: 3.72 nM
IC50 [2]: 3.09 nM
IC50 [3]: 2.51 µM
IC50 [4]: 5.01 nM

CC(=O)C1(c2ccccc2)CCN(C[C@H]2C[C@@H]3c4ccccc4Cc4ccc(F)cc4[C@@H]3O2)CC1.O=C(O)C(=O)O [Compound 273]
5-HT2C pIC50 [1]: 8.24
5-HT2A pIC50 [2]: 8.48
NET pIC50 [3]: <5
D2L pIC50 [4]: 7.71

N#CCC1CCN(CC2CC3c4ccccc4Cc4ccc(F)cc4C3O2)CC1 (stereo not shown) [Compound 168]
IC50 [1]: 9.33 nM
IC50 [2]: 3.89 nM
IC50 [3]: > 10 µM
IC50 [4]: 2.82 nM

COC(=O)C(Cc1ccc(Cl)cc1)NC(=O)C1CCN(CC2CC3c4ccccc4Cc4ccc(F)cc4C3O2)CC1 (mixture of isomers) [Compound 184]
IC50 [1]: 5.75 nM
IC50 [2]: 1.41 nM
IC50 [3]: 3.89 µM
IC50 [4]: 25.1 nM

CN(CCO)CCC1CN(CC2CC3c4ccccc4Cc4ccc(F)cc4C3O2)CCO1 (mixture of isomers) [Compound 133]
IC50 [1]: 34.7 nM
IC50 [2]: 49 nM
IC50 [3]: 0.933 µM
IC50 [4]: 355 nM

Fc1ccc2c(c1)C1OC(CN3CCN(c4nc5ccccc5[nH]4)CC3)CC1c1ccccc1C2 (stereo not shown) [Compound 127]
IC50 [1]: 4.17 nM
IC50 [2]: 0.251 nM
IC50 [3]: 3.8 µM
IC50 [4]: 22.4 nM

Fc1ccc2c(c1)[C@@H]1O[C@@H](CN3CCC4(CC3)OCCO4)C[C@@H]1c1ccccc1C2 [Compound 278]
IC50 [1]: 9.77 nM
IC50 [2]: 1.62 nM
IC50 [3]: > 10 µM
IC50 [4]: 2.29 nM

COc1ccc(OCC2CCN(C[C@H]3C[C@@H]4c5ccccc5Cc5ccc(F)cc5[C@@H]4O3)C2)cc1 (stereo partly shown) [Compound 25]
IC50 [1]: 4.68 nM
IC50 [2]: 1.58 nM
IC50 [3]: 2.19 µM
IC50 [4]: 6.03 nM

OCC1CCN(C[C@H]2C[C@@H]3c4ccccc4Cc4ccc(F)cc4[C@@H]3O2)C1 (stereo partly shown) [Compound 5]
IC50 [1]: 0.204 nM
IC50 [2]: < 10 nM
IC50 [3]: 4.07 µM
IC50 [4]: 8.51 nM

Fc1ccc2c(c1)C1OC(CN3CCN(Cc4ccc(-c5ccc(Cl)cc5)o4)CC3)CC1c1ccccc1C2 (stereo not shown) [Compound 62]
IC50 [1]: 107 nM
IC50 [2]: 47.9 nM
IC50 [3]: 3.47 µM
IC50 [4]: 75.9 nM

O=C(C1CCN(CC2CC3c4ccccc4Cc4ccc(F)cc4C3O2)CC1)N1CCC1 (stereo not shown) [Compound 200]
IC50 [1]: 8.13 nM
IC50 [2]: < 10 nM
IC50 [3]: > 10 µM
IC50 [4]: 15.5 nM

OC1CCN(C[C@@H]2C[C@@H]3c4ccccc4Sc4ccc(F)cc4[C@H]3O2)C1 (relative stereo) [Compound 43]
IC50 [1]: 1.29 nM
IC50 [2]: < 10 nM
IC50 [3]: 1.7 µM
IC50 [4]: 57.5 nM

COCCC1CN(C[C@H]2C[C@@H]3c4ccccc4Cc4ccc(F)cc4[C@@H]3O2)CCO1 (stereo partly shown) [Compound 130]
IC50 [1]: 5.37 nM
IC50 [2]: < 10 nM
IC50 [3]: 3.55 µM
IC50 [4]: 21.9 nM

O=C(NCCCO)C1CCN(CC2CC3c4ccccc4Cc4ccc(F)cc4C3O2)CC1 (stereo not shown) [Compound 175]
IC50 [1]: 1.74 nM
IC50 [2]: 0.759 nM
IC50 [3]: > 10 µM
IC50 [4]: 18.2 nM

COc1ccc(NC(=S)N2CCN(CC3CC4c5ccccc5Cc5ccc(F)cc5C4O3)CC2)cc1 (stereo not shown) [Compound 112]
IC50 [1]: 21.9 nM
IC50 [2]: 3.31 nM
IC50 [3]: 0.933 µM
IC50 [4]: 20.4 nM

Fc1ccc2c(c1)C1OC(CN3CCN(c4ccccn4)CC3)CC1c1ccccc1C2 (stereo not shown) [Compound 117]
IC50 [1]: 2.51 nM
IC50 [2]: 1.48 nM
IC50 [3]: 4.57 µM
IC50 [4]: 15.5 nM

O=C(NCc1cccc(C(F)(F)F)c1)N1CCN(CC2CC3c4ccccc4Cc4ccc(F)cc4C3O2)CC1 (stereo not shown) [Compound 101]
IC50 [1]: 12 nM
IC50 [2]: 5.75 nM
IC50 [3]: 8.91 µM
IC50 [4]: 17.4 nM

OC1(c2ccc(F)cc2)CCN(CC2CC3c4ccccc4Cc4ccc(F)cc4C3O2)C1 (mixture of isomers) [Compound 41]
IC50 [1]: 2.29 nM
IC50 [2]: 1.82 nM
IC50 [3]: 7.08 µM
IC50 [4]: 4.27 nM

N#CC1CCCN(C[C@H]2C[C@@H]3c4ccccc4Cc4ccc(F)cc4[C@@H]3O2)CC1.O=C(O)C(=O)O.O=C(O)C(=O)O (mixture of isomers) [Compound 268]
5-HT2C pIC50 [1]: 8.24
5-HT2A pIC50 [2]: 8.52
NET pIC50 [3]: <5
D2L pIC50 [4]: 7.92

CN(C)CCC1CN(C[C@H]2C[C@@H]3c4ccccc4Cc4ccc(F)cc4[C@@H]3O2)CCO1 (stereo partly shown) [Compound 132]
IC50 [1]: 33.1 nM
IC50 [2]: 33.1 nM
IC50 [3]: 5.75 µM
IC50 [4]: 389 nM

Fc1ccc2c(c1)[C@@H]1O[C@@H](CN3CCc4ccccc4C3)C[C@@H]1c1ccccc1C2.O=C(O)C(F)(F)F [Compound 275]
5-HT2C pIC50 [1]: 8.66
5-HT2A pIC50 [2]: 8.52
NET pIC50 [3]: 5.49
D2L pIC50 [4]: 8.03
